Values of other authors, collected in US4738979A, “α2 -blocking derivatives of imidazole” (G. D. Searle & Co., priority 1985, dated 1988).

Test system: α2 -adrenergic receptors
Conditions: cited from earlier work

Compound | selectivity (in words) | side-effects (in words)
COC(=O)[C@H]1[C@H]2C[C@H]3c4[nH]c5ccccc5c4CCN3C[C@H]2CC[C@@H]1O [rauwolscine] | lack selectivity | numerous side-effects
COC(=O)[C@@H]1[C@H]2C[C@H]3c4[nH]c5ccccc5c4CCN3C[C@@H]2CC[C@@H]1O [yohimbine] | lack selectivity | numerous side-effects
